Measurements published in patent US7037533B2 (priority 2001, dated 2006).
Like-named read-outs stand apart in the source and are kept apart here.

How the values were obtained:
[1] = cited from earlier work
[2] = inhibition of nitrosomorpholine generation from morpholine and NaNO2 in vitro; details: 20 mg/ml
Description: EGCG, quercetin, catechin, vitamin C and powdered green tea were used as a control group. Each specimen was used in a concentration of 2.5, 5, 10, 15, 20 mg/ml. 200 mM of sodium nitrate not containing morpholine was used as a negative control. The specimen not containing the nitrosating agent NaNO2 was used as a blank in each reaction.
Each specimen was added into 15 ml of corning tubes according to concentration and marked with the blank, test, negative control. 1 ml of glacial acetic acid was added into each tube and 100 μl of 2 M NaNO2 was added into each tube except blank and distilled water was added to make total volume of 2 ml. After reacting for 10 minutes at 37° C., 176 μl of morpholine was added to make 2 M and the reaction was further carried out for 30 minutes at 37° C. The reaction was stopped by adding 3.8 ml of 5 N NaOH to set pH 10 to 12. According to DBA method, the specimens were measured and compared with blank group (not added NaNO2) and negative control group (not added morpholine and added 200 mM NaNO2).
Generation rate of nitrosomorpholine (NMOR %) is measured as below calculating formula 1. NMOR %=[(t0−blank)−(t30−blank)]/(t0−blank) (Calculating formula 1) • Blank; a specimen not containing nitrosating agent NaNO2 • t0; a specimen containing 200 mM of NaNO2 without morpholine • t30; a specimen normally reacted in the generation of nitrosomorpholine.

purified CYP 1A2 = target: T1, purified CYP 1A2 (Homo sapiens, UniProt P05177); test: purified RECO System CYP 1A2 enzyme activity with methoxyresorufin
T1 sequence (P05177 2-516 limits assumed): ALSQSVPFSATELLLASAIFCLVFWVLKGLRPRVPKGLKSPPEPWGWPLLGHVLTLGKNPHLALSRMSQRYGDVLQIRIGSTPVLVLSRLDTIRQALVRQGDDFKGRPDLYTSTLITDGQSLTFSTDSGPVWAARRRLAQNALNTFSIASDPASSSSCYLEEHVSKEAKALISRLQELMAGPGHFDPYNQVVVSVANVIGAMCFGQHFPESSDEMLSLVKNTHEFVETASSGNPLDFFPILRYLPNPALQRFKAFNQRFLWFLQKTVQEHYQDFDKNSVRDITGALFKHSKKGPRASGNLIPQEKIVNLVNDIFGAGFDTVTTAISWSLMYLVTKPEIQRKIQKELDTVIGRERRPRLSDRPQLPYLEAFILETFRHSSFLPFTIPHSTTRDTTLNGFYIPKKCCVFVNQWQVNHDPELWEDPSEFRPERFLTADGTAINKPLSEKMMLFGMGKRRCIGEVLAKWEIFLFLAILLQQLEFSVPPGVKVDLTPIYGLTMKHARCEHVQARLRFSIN
Description: A composition of enzyme mixture comprises 0.5 uM CYP1A2, 0.2 μM NADPH P450 reductase, 0.5 μg/uL CHAPS, 0.1 μg/uL liposomes (dilauroyl phosphotidylcholine, dileoyl phosphotidylcholine, dilauroyl phosphotidylcholine (1:1:1)), 3 mM reductive glutathion, and 50 mM HEPES/KOH (pH 7.4). A buffer solution is 1 M potassium/sodium phosphate. 768 μl of tertiary distilled water, 126.7 μl of CYP 1A2 buffer solution, and 5.3 μl of 1 mM methoxyresorufin were added sequentially to make […] of solution and heated at 37° C. 5 μl of enzyme activation inhibiting material was added into 85 μl of buffer solution and substrate mixture to make final concentration 0.1, 0.5, 1.0, and 2.0 mg/ml respectively. The reaction started at 37° C. while adding 5 μl of CYP 1A2 enzyme mixture and 5 μl of 50 mM NADPH. The reaction was maintained for 20 minutes and stopped by adding 1 ml of methanol. The enzyme activity was measured by using a RF-5301 PC spectrofluoro photometer (SHIMADZU, Japan).

CYP 1A2 [3] = target: T2, CYP 1A2 (Rattus norvegicus, UniProt P04799)
T2 sequence (P04799 1-513): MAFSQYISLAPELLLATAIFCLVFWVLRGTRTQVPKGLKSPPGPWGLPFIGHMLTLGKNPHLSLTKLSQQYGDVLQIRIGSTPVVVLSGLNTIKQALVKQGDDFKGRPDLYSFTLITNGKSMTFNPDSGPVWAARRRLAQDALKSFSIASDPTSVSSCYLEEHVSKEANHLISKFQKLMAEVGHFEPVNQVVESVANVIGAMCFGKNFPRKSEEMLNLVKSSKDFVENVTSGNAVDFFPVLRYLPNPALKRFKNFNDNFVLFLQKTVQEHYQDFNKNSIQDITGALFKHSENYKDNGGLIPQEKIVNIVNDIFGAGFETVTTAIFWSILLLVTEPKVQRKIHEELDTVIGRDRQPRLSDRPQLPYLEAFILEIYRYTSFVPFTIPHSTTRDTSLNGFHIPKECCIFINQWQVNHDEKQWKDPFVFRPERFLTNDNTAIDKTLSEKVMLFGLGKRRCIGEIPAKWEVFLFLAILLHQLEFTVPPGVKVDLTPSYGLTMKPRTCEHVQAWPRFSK
Description: (§1) The present test measured the inhibition effect of CYP relating to NNK activation to various test materials after inducing CYP of a liver from a rat(Sprague-Dawley rat) by Aroclor 1254(Sigma, USA) and taking out the liver.
(§2) Aroclor 1254 was injected into the abdomen of a 7-week old male rat (Sprague-Dawley rat) in a capacity of 500 mg/kg. After 5 days, the liver was taken out in a sterile state and homogenized using 0.15M of KCl solution at 4° C. A supernatant was separated by a centrifugal separation for 10 minutes at 9000 g from the homogenate and used in the test. Activity of CYP was measured by using pentoxyresorufin(Sigma USA) which is a substrate of CYP 2B1/2/4, ethoxyresorufin(Sigma USA) which is a substrate of CYP 1A1 and methoxyresorufin(Sigma USA) which is a substrate of CYP 1A2. […] The inhibition effect for CYP activity was compared using the above reaction specimen (inhibition material), the supernatant taken out from the liver and specific substrate of each CYP. […] Each specimen has a concentration of 0.1, 0.5, 1.0 and 2.0 mg/ml and an amount of protein taken out from the liver is set to 500 μg/ml. Each substrate had 2.5 μM of stock solution and finally became 25 nM after adding 10 μl. […] The enzyme activity was measured by using a RF-5301 PC spectrofluoro photometer (SHIMADZU, Japan) from the supernatant (excitation at 522 nm and emission at 586 nm). […]

[4] = tested on: breast cancer, leukemia, uterus cancer, stomach cancer and colon cancer cell strain; details: cited from earlier work
CYP 1A2 [5] = target: T2, CYP 1A2; test: MROD (methoxyresorufin dealkylase) activity in Aroclor 1254-induced rat liver supernatant
Description: as §1, §2

[6] = DPPH free radical scavenging
Description: 1.5 ml of DPPH was placed into a cuvette and 1.5 ml of antioxidant solution was added and evenly mixed. Right after mixing, the change of absorbance (523 nm) according to time was measured and the decomposition rate was calculated. Decomposition rate=(initial absorbance of DPPH−absorbance after adding each specimen according to time)/initial absorbance of DPPH×100 (Calculating formula 3)

CN1C(=O)CC[C@H]1c1cccnc1 [cotinine]
half period ([1]; cotinine): 24 h

O=C(O)CCC(=O)c1cccnc1 [ketoic acid]
share of ketoic acid metabolized to hydroxy acid and excreted as urine ([1]; in vivo): 85%

CN1CCCC1c1cccnc1 (stereo not drawn) [nicotine]
share of nicotine conversed into cotinine ([1]; in vivo): 70-80%
share of nicotine conversed into nicotine-1-N-oxide by FMO ([1]; in vivo): 4%
share of nicotine excreted as urine through metabolism ([1]; in vivo): 80-90%
half period ([1]; nicotine): 0.5 h

O=c1c(O)c(-c2ccc(O)c(O)c2)oc2cc(O)cc(O)c12 [quercetin]
inhibition of generating nitromorpholine from morpholine [2]: ~75%
order of inhibition of activity of purified CYP 1A2 (purified CYP 1A2): EGCG>>the functional agent>>quercetin>>powdered green tea>>catechin
order of inhibition of activity of CYP 1A2 (CYP 1A2 [3]): quercetin>>the functional agent>>catechin≈powdered green tea
concentration of quercetin at which propagation of cancer cell strain was inhibited [4]: 10 µM

catechin
inhibition of generating nitromorpholine from morpholine [2]: ~75%
order of inhibition of activity of purified CYP 1A2 (purified CYP 1A2; purified enzyme): EGCG>>the functional agent>>quercetin>>powdered green tea>>catechin
order of inhibition of activity of CYP 1A2 (CYP 1A2 [5]): quercetin>>the functional agent>>catechin≈powdered green tea

epigallocatechin-3-gallate [EGCG]
order of inhibition of activity of purified CYP 1A2 (purified CYP 1A2; purified enzyme): EGCG>>the functional agent>>quercetin>>powdered green tea>>catechin
DPPH radical scavenging effect, comparison [6]: two times higher than that of the functional agent and catechin
